Assay [1] is described as follows: Lipid peroxidation of liposomes using H2O2+FeCl2. In kind it is biochemical. The conditions noted are these: vs negative control. How it is done:
(§1) In order to determine the action of teprenone as per the invention, the effect of the active substance on the lipid peroxidation of liposomes was analyzed. The liposomes were used to model cutaneous lipids.
In this method, liposomes are exposed to the test compound and a Fenton oxidative system. The peroxidation is determined by spectrophotometry. Trolox, a known anti-free radical agent, is used as the positive control at the same molar concentration as a teprenone.

Assay [2] in a line: Lipid peroxidation of liposomes using UVA radiation. The conditions noted are these: UVA induced, vs negative control. Format: biochemical. How it is done:
as §1
In this method, liposomes are exposed to the test compound and then to UV A radiation. Peroxidation is determined by spectrophotometry at 233 nm.

Assay [3] has as its system catalase. Put plainly: Catalase activity in human skin explants after UVB (Clairborne-Aebi method). Format: cell-based. The settings on record: after UVB 2 J/cm2; 0.05 mM. How it is done: Human skin explants obtained from a patient having undergone plastic surgery were cultured with or without teprenone or Trolox (positive control) for 48 hours then exposed to UV B radiation (2 J/cm^2). After irradiation, the explants were again cultured in fresh medium with or without teprenone or Trolox for 24 hours. Similars explants were also used in immunolabeling tests on heat shock proteins (HSP) and in the apoptosis study.
Catalase anti-oxidant activity was determined by the Clairborne-Aebi method. Hydrogen peroxide (H2O2) consumption is directly proportional to catalase activity. The consumption was determined by spectrophotometry at 240 nm

Assay [4] relates to Hsp70. Put plainly: Hsp70 immunolabeling in UVB-irradiated human skin explants. In kind it is cell-based. The conditions noted are these: 0.1 mM. The source says: (§2) Heat Schock proteins (Hsp) are cellular protective molecules which contribute to the correct proteinic folding, thus preserving the protein activity. Hsp 27 is a protective chaperone protein very present in the keratinocytes at the basal state. In situation of UV stress, cell increases its rate of protection and Hsp 27 is strongly overexpressed. Hsp70 is a chaperone protein less expressed in a basal state but induced in response to the UV, thermics, mechanics or infectious stress.
(§3) Human skin explants are treated in a similar way to the previous experiment (protection on the catalase activity): taken from a plastic surgery, they are cultivated for 48 h in the presence or not, for control, of teprenone (or trolox) at various concentrations, then irradiated or not using a source UVB (2 J/cm2). After irradiation skin explants were post-treated (24 h) or not with teprenone (or trolox) at the same concentrations.
(§4) Explants were embedded in OCT, sectioned using a freezing microtome, and slide mounted. The mounted specimens were immunolabeled with anti-human Hsp antibody.

The subject of assay [5] is Hsp27. Put plainly: Hsp27 immunolabeling in UVB-irradiated human skin explants. In kind it is cell-based. The conditions noted are these: 0.1 mM.
Text: as §2, §3, §4

Assay [6] deals with sunburn cells (SBC) in human skin explants. Put plainly: Sunburn cells (SBC) in human skin explants after UVB. Format: cell-based. The conditions noted are these: after UVB 2 J/cm^2. On the procedure: With a view to determining the action of teprenone as per the invention, the effect of the active substance on the presence of sunburn cells (SBC) and apoptotic cell in human skin explants was investigated.
Human skin explants are treated in a way similar to the preceding experiment of description of the protective role of the teprenone on the catalase activity (obtained from a patient having undergone plastic surgery, cultured with or without teprenone for 48 hours then exposed to UV B radiation (2 J/cm^2). After irradiation, the explants were again cultured in fresh medium with or without teprenone for 24 hours).
SBC were evidenced on paraffin-wax-embedded skin explant sections by staining with […]. SBC, apoptotic keratinocytes with pyknotic nuclei and eosinophilic cytoplasm, are characteristic of mammalian epidermis exposed to UV B radiation.

For `Cc1c(C)c2c(c(C)c1O)CCC(C)(C(=O)O)O2` (centres unmarked) [Trolox, 6-hydroxy-2,5,7,8-tetramethylchroman-2-carboxylic acid], the Variation of peroxydation in assay [1] (concentration 2.2 · 10^−2%) was −88%; in assay [1] (concentration 2.2 · 10^−3%), −87%; in assay [1] (concentration 2.2 · 10^−4%), −83%; in assay [1] (concentration 7.5 · 10^−3%), −87%; in assay [1] (concentration 7.5 · 10^−4%), −82%; in assay [2] (concentration 2.2 · 10^−2%), −86%. The Variation of peroxydation was −88% in assay [2] (concentration 2.2 · 10^−3%), −74% in assay [2] (concentration 2.2 · 10^−4%), −88% in assay [2] (concentration 7.5 · 10^−3%) and −86% in assay [2] (concentration 7.5 · 10^−4%). The catalase activity in assay [3] was 90 UI/mg of protein. In addition, the “Hsp70: Protection vs. irradiated (%)” value in assay [4] came to 100%. The “Number of Hsp70 positive cells/cm” value in assay [4] (UVB 2 J/cm2, n = 3) is 40 cells/cm. Moreover, the “Hsp27: Protection vs. irradiated (%)” value in assay [5] is given as 75%. Besides, the “Number of Hsp27 positive cells/cm” value in assay [5] (UVB 2 J/cm2, n = 3) is on record as 380 cells/cm. Further, the entries for the “% SBC (Sun Burn Cells)” value in assay [6] (0.05 mM) and in assay [6] (0.1 mM) were 45% and 30%, respectively.
